Results as given in patent US20250115943A1, “SYSTEM AND METHOD FOR ANTIMICROBIAL SUSCEPTIBILITY TESTING” (priority 2023, published 2025).
≈ marks a conversion by molar mass, not a printed value. Read-outs that look alike come from different tables or passages of the source.

Columns and labels:
E. coli ATCC 25922 [1] = test: CytoSPAR BLAST antibiotic susceptibility test; format: cell-based; conditions: for MIC: Escherichia coli; for S, I, R: susceptible, intermediate, resistant category
Source text: (§1) The disclosed technology, which is referred to as the CytoSPAR BLAST (Bacteria Labeling Antibiotic Susceptibility Test) system, is used to quantitatively assess bacterial minimal inhibitory concentration of antibiotics for in vitro susceptibility testing. Used as an aid in diagnosis for clinicians in determining potential treatment options for patients suspected of having a microbial infection, BLAST is intended to determine susceptibility of microorganisms to the listed antibiotics (or other antimicrobials) according to manufacturer's standards. The system is intended for use with clinical isolates from liquid culture and colonies grown on agar (solid medium) or directly from urine samples. Certain implementations of BLAST determine antibiotic susceptibility for a wide range of bacteria obtained from various types of patient samples, including samples from individuals suffering from urinary tract infections. The disclosed technology includes a high-throughput assay that directly detects bacterial susceptibility to a library of frequently used antibiotics and covers both Gram-negative and Gram-positive bacteria.
(§2) The test incorporates a non-canonical amino acid (ncAA) into newly produced proteins. The incorporated ncAA includes a reactive group which allows a specific modification and detection of the living bacteria. The assay involves bacterial incorporation of the ncAA, a chemical reaction between a reactive group and a fluorophore-tagged ligand, and detection of the newly fluorescent-tagged bacteria using a fluorescent plate reader or functionally similar device. The ncAA is added to bacterial growth media and is incorporated into newly synthesized bacterial proteins. The reactive groups on the ncAA are not naturally found in bacteria and act as a specific reactive group for bacteria undergoing active protein synthesis. […] The entire process is performed in a microtiter filter plate for high-throughput scale-up. Alternatively, a normal 96-well plate can also be used in which case centrifugation is used to wash the plate instead of filtration.
(§3) In an example embodiment, bacterial samples are first diluted and incubated in acclimatization media. After treatment with one or more antimicrobials, the ncAA is added and is taken up by living bacteria during protein biosynthesis in a process called labeling. […] The Click-Chemistry reaction between the alkyne group of the ncAA and the azide group of the fluorophore-tagged ligand requires the presence of copper in the reduced state-copper (I). In other implementations, the functional groups of the click chemistry reaction can be changed so that the ncAA has the azide group and the dye has the alkyne group. […] Other reducing agents may be used in the BLAST assay, for example, aldoses (sugars) including glyceraldehyde, glucose, and ribose to replace sodium ascorbate. Likewise, alternate chelators may be used (e.g., histidine in place of BTTAA). In some implementations, metal-free click chemistry reactions are performed without using copper.
(§4) Using the BLAST system, tests can be performed on isolates or direct urine samples. Isolates may be from urine, blood, or other body fluids. Isolated bacteria may be either Gram-positive or Gram-negative. In an example implementation, living bacterial samples in acclimatization media (Buffer A) are distributed in a microtiter filter plate, wherein certain predetermined wells include antibiotics of interest at different concentrations. These antibiotics are arrayed with increasing concentrations in adjacent wells so that the bacterial response can be measured against each specific concentration. The response is measured quantitatively, and a value that corresponds to the ability of the bacteria to metabolize and grow is measured.

S. aureus ATCC 29213 [2] = test: CytoSPAR BLAST antibiotic susceptibility test; format: cell-based; conditions: for S, I, R: susceptible, intermediate, resistant category; for MIC: Staphylococcus aureus
Source text: as §1, §2, §3, §4

S. aureus ATCC 29213 [3] = conditions: CLSI M100-Ed34E; cited from earlier work
E. coli ATCC 25922 [4] = conditions: CLSI M100-Ed34E, cited from earlier work
E. coli LSI 770 [5] = test: CytoSPAR BLAST antibiotic susceptibility test; format: cell-based; conditions: E. coli LSI 770; for MIC: Escherichia coli, LSI770
Source text: as §1, §2, §3, §4

K. pneumoniae LSI 4552 [6] = test: CytoSPAR BLAST antibiotic susceptibility test; format: cell-based
Source text: as §1, §2, §3, §4

K. pneumoniae LSI CT1045 [7] = test: CytoSPAR BLAST antibiotic susceptibility test; format: cell-based; conditions: susceptible, intermediate, resistant category
Source text: as §1, §2, §3, §4

P. mirabilis LSI 4698 [8] = test: CytoSPAR BLAST antibiotic susceptibility test; format: cell-based
Source text: as §1, §2, §3, §4

P. mirabilis LSI 4933 [9] = test: CytoSPAR BLAST antibiotic susceptibility test; format: cell-based
Source text: as §1, §2, §3, §4

E. coli LSI 770 [10] = test: reference broth microdilution (rBMD); format: cell-based
Procedure: (§5) Following optimization of the BLAST assay, two other tests were performed in which 12 antibiotics (covering different classes) and 8 bacterial strains (Gram-positive and Gram-negative) were assayed using the same method as described above. Different bacterial strains were tested against different antibiotics and for each pair tested, the BLAST MIC value was compared to the CLSI QC range where available, or to the reference broth microdilution (rBMD) MIC which was determined in parallel with the BLAST assay following the CLSI protocols (see references [9]).
The inoculated urine cultures were incubated overnight at 35+2° C. Each urine culture was centrifuged, and the sediment used to prepare the BLAST inoculum of 5.0×10^5 CFU/mL to start the assay as described in the protocols section. […] The spiked urine samples were tested in parallel with isolates and the resultant BLAST MIC values were compared. In addition to the BLAST test, all the samples were also tested using the reference broth microdilution (rBMD) method and the MIC values were compared.

K. pneumoniae LSI 4552 [11] = test: reference broth microdilution (rBMD); format: cell-based; conditions: Klebsiella pneumoniae, LSI4552
Procedure: as §5

K. pneumoniae LSI CT1045 [12] = test: reference broth microdilution (rBMD); format: cell-based; conditions: Klebsiella pneumoniae, LSICT1045
Procedure: as §5

P. mirabilis LSI 4933 [13] = test: reference broth microdilution (rBMD); format: cell-based; conditions: Proteus mirabilis, LSI4933
Procedure: as §5

P. mirabilis LSI 4698 [14] = test: reference broth microdilution (rBMD); format: cell-based; conditions: Proteus mirabilis, LSI4698
Procedure: Different bacterial strains were tested against different antibiotics and for each pair tested, the BLAST MIC value was compared to the CLSI QC range where available, or to the reference broth microdilution (rBMD) MIC which was determined in parallel with the BLAST assay following the CLSI protocols (see references [8] [9]).

[15] = susceptible, intermediate, resistant category

With CO/N=C(\C(=O)N[C@@H]1C(=O)N2C(C(=O)O)=C(COC(N)=O)CS[C@H]12)c1ccco1 [Cefuroxime, cefuroxime] the MIC (E. coli ATCC 25922 [1]; ATCC25922, Table 6, optimized BLAST, cutoff 0.8, read-out: MIC BLAST) was 4 µg/mL (≈ 9.43 µM), the “S, I, R” value (E. coli ATCC 25922 [1]) was “Susceptible” and the “S, I, R” value (S. aureus ATCC 29213 [2]; S. aureus ATCC 29213) was “Susceptible”. For the same compound, the MIC (S. aureus ATCC 29213 [2]; ATCC29213, Table 6, S. aureus ATCC 29213, optimized BLAST, cutoff 0.8, read-out: MIC BLAST) was 0.25 µg/mL (≈ 0.589 µM) and the “MIC CLSI QC Range” value (S. aureus ATCC 29213 [3]) was 0.5 to 2 µg/mL.

With CC1=C(C(=O)O)N2C(=O)[C@@H](NC(=O)[C@H](N)c3ccccc3)[C@H]2SC1 [Cephalexin, cephalexin] the MIC (E. coli ATCC 25922 [1]; ATCC25922, read-out: MIC BLAST, Table 6, optimized BLAST, cutoff 0.8) was 16 µg/mL (≈ 46.1 µM), the “S, I, R” value (E. coli ATCC 25922 [1]) was “Susceptible” and the “S, I, R” value (S. aureus ATCC 29213 [2]; S. aureus ATCC 29213) was “Susceptible”. The MIC (S. aureus ATCC 29213 [2]; ATCC29213, read-out: MIC BLAST, Table 6, S. aureus ATCC 29213, optimized BLAST, cutoff 0.8) was 1 µg/mL (≈ 2.88 µM), the “MIC CLSI QC Range” value (E. coli ATCC 25922 [4]) was 1.0 to 4.0 µg/mL and the “MIC CLSI QC Range” value (S. aureus ATCC 29213 [3]) was 0.25 to 1 µg/mL.

C[C@H]1c2cccc(O)c2C(=O)C2=C(O)[C@]3(O)C(=O)C(C(N)=O)=C(O)[C@@H](N(C)C)[C@@H]3[C@@H](O)[C@@H]21 [Doxycycline, doxycycline] showed an MIC (E. coli ATCC 25922 [1]; ATCC25922, Table 7, read-out: MIC BLAST) of 0.14 µg/mL (≈ 0.315 µM), an MIC (E. coli ATCC 25922 [1]; ATCC25922, Table 8, isolates, 5 × 10^5 CFU/mL, read-out: MIC BLAST Isolates) of 0.14 µg/mL (≈ 0.315 µM) and an MIC (E. coli ATCC 25922 [1]; ATCC25922, Table 8, spiked urine sample, 5 × 10^5 CFU/mL, read-out: MIC BLAST Spiked Urine) of 0.28 µg/mL (≈ 0.63 µM). For the same compound, the “S, I, R” value (E. coli ATCC 25922 [1]) was “Susceptible”, the “S, I, R” value (E. coli LSI 770 [5]; [15]) was “Resistant” and the MIC (E. coli LSI 770 [5]; Table 7, read-out: MIC BLAST) was 71 µg/mL (≈ 160 µM). The MIC (E. coli LSI 770 [5]; Table 8, isolates, 5 × 10^5 CFU/mL, read-out: MIC BLAST Isolates) was 71 µg/mL (≈ 160 µM), the MIC (E. coli LSI 770 [5]; Table 8, spiked urine sample, 5 × 10^5 CFU/mL, read-out: MIC BLAST Spiked Urine) was 71 µg/mL (≈ 160 µM) and the MIC (K. pneumoniae LSI 4552 [6]; Klebsiella pneumoniae, LSI4552, Table 7) was 1 µg/mL (≈ 2.25 µM). The “S, I, R” value (K. pneumoniae LSI 4552 [6]; [15]) was “Susceptible”, the “S, I, R” value (K. pneumoniae LSI CT1045 [7]) was “Resistant” and the MIC (P. mirabilis LSI 4698 [8]; Proteus mirabilis, LSI4698, Table 7) was 4.4 µg/mL (≈ 9.9 µM). For the same compound, the “S, I, R” value (P. mirabilis LSI 4698 [8]; [15]) was “Susceptible”, the MIC (P. mirabilis LSI 4933 [9]; Proteus mirabilis, LSI4933, Table 7) was 1.1 µg/mL (≈ 2.48 µM) and the “S, I, R” value (P. mirabilis LSI 4933 [9]; [15]) was “Susceptible”. For the same compound, the “S, I, R” value (S. aureus ATCC 29213 [2]; S. aureus ATCC 29213) was “Susceptible”, the MIC (S. aureus ATCC 29213 [2]; ATCC29213, S. aureus ATCC 29213, 5×10^6 CFUs/mL, cutoff 0.8, FIGS. 19-21, read-out: BLAST MIC) was < 0.0625 µg/mL and the MIC (S. aureus ATCC 29213 [2]; ATCC29213, Table 7, S. aureus ATCC 29213, read-out: MIC BLAST) was 0.02 µg/mL (≈ 0.045 µM). For the same compound, the MIC (S. aureus ATCC 29213 [2]; ATCC29213, Table 8, S. aureus ATCC 29213, isolates, 5 × 10^5 CFU/mL, read-out: MIC BLAST Isolates) was 0.02 µg/mL (≈ 0.045 µM), the MIC (S. aureus ATCC 29213 [2]; ATCC29213, Table 8, S. aureus ATCC 29213, spiked urine sample, 5 × 10^5 CFU/mL, read-out: MIC BLAST Spiked Urine) was 0.02 µg/mL (≈ 0.045 µM) and the MIC (E. coli LSI 770 [10]; Escherichia coli, LSI770) was 64 µg/mL (≈ 144 µM). For the same compound, the “MIC rBMD” value (E. coli LSI 770 [10]; Table 8, E. coli LSI 770, geometric mean MIC rounded to nearest 2-fold dilution, n = 3) was 64 µg/mL (≈ 144 µM), the MIC (K. pneumoniae LSI 4552 [11]) was 2 µg/mL (≈ 4.5 µM) and the MIC (K. pneumoniae LSI CT1045 [12]) was 8 µg/mL (≈ 18 µM). For the same compound, the MIC (P. mirabilis LSI 4933 [13]) was 4 µg/mL (≈ 9 µM), the MIC (P. mirabilis LSI 4698 [14]) was 32 µg/mL (≈ 72 µM) and the “MIC CLSI QC Range” value (E. coli ATCC 25922 [4]; listed as doxycycline) was 0.5 to 2 µg/mL. For the same compound, the “MIC CLSI QC Range” value (E. coli ATCC 25922 [4]) was 0.5 to 2.0 µg/mL.

In the case of C[C@@H](O)[C@H]1C(=O)N2C(C(=O)O)=C(S[C@@H]3CN[C@H](C(=O)N(C)C)C3)[C@H](C)[C@H]12 [Meropenem, meropenem], the “S, I, R” value (E. coli ATCC 25922 [1]) is reported as “Susceptible” and the “S, I, R” value (S. aureus ATCC 29213 [2]; S. aureus ATCC 29213) is reported as “Susceptible”.
